Where two headings read alike, the source gives them in different places.

Test [1] concerns the target T1, human vasopressin V1b receptor (Homo sapiens, UniProt P47901).
T1 sequence (P47901 1-424): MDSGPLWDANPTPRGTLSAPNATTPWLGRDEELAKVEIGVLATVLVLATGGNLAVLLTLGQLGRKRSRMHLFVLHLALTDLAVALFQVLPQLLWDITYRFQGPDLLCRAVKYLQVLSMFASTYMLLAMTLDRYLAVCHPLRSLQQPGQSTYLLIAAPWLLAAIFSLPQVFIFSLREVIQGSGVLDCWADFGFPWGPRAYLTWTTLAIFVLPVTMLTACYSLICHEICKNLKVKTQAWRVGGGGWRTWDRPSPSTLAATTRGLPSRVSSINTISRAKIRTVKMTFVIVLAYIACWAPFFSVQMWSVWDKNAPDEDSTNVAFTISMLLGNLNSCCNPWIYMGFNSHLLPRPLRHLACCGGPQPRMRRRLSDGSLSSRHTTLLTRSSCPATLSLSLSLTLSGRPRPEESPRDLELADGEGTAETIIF
Particulars: read-out: Ki(h-V1b)*, CHO-K1 membranes, 3H-AVP displacement.

In test [2] the target is human vasopressin V1a receptor (Homo sapiens, UniProt P37288). As to the kind of experiment: Vasopressin V1a receptor binding assay. Particulars: selectivity quotient, human V1a vs human V1b.
The next test has as its system Sprague Dawley rats. As to the kind of experiment: Forced swim test. In kind it is in vivo. Particulars: i.p. 24, 4 and 0.5 hours before testing, at 10 mg/kg. From the text:
(§1) Male NMRI mice (Janvier, Le Genest-St-Isle, France) were used for stress-induced Adrenocorticotropic hormone (ACTH) release. Adult male Wistar rats (175-220 g body weight upon arrival) were obtained from Harlan Inc. (Indianapolis, Ind.). For the forced swim test, male Sprague Dawley rats (100-120 g body weight upon arrival) were obtained from Janvier (Le Genest-St-Isle, France). The animals were acclimatized to the animal facilities for at least one week before the start of the experimental procedures. Animals were maintained in a controlled environment on a 12:12 hour light dark schedule (lights on 06:00 h for rats in Vogel conflict test and 05:30 h for rats in forced swim test). Experimental procedures took place during the illuminated phase of the light/dark cycle. Food and water were available ad libitum, except for the Vogel conflict test, where the animals were submitted to a water deprivation regimen as described below. […]
The forced swim test consisted of a pre-test and a test swim. […] Test swims were recorded on videotape and subsequently used for analysis. […]

The target in test [3] is T1, human vasopressin V1b receptor. As to the kind of experiment: biochemical.
For a further test, the system named is Wistar rats. The experiment in a line: Vogel conflict test. Format: in vivo. Particulars: i.p. 30 minutes before the test, at 10 and 30 mg/kg.
Excerpt: as §1
The Vogel conflict test is a well-validated animal model to detect compounds with anxiolytic properties. […] The number of punished responses was automatically recorded for each rat during 5 min of testing. […]

Test [4] has as its system stress-induced ACTH release. The experiment in a line: Stress-induced ACTH release. In kind it is in vivo, NMRI mice. Particulars: mice, restraint stress, i.p. 1 hour before; at 10 and 30 mg/kg.
Excerpt: as §1
The blood was collected in 1.3 mL blood sampling vials containing potassium EDTA (Sarstedt, Nümbrecht, Germany) and […] aprotinin solution (saline solution, 3-7 TIU [trypsin inhibitor units]/mg protein; Sigma-Aldrich, Germany). […] ACTH concentrations were measured by an ELISA (enzyme-linked immuno sorbent assay) for ACTH (IBL Hamburg, Germany). […]

Sequence of human vasopressin V1a receptor (P37288 whole entry): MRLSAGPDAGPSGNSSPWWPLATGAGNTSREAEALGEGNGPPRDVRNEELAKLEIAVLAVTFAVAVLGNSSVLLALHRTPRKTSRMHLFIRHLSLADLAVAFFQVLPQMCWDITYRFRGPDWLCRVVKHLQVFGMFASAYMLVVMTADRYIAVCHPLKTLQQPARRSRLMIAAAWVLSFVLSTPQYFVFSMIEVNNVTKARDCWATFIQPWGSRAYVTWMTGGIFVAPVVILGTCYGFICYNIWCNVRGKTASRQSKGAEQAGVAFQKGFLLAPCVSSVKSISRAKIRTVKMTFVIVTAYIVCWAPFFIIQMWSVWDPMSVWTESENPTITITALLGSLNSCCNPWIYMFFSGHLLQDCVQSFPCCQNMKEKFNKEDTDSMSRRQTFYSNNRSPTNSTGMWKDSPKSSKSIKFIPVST

With `COc1ccc(S(=O)(=O)N2C(=O)[C@@](NC(=O)N3CCN(C4CCN(C5COC5C)CC4)CC3)(c3cccnc3OC)c3cc(C#N)ccc32)c(OC)c1.O=C(O)C(F)(F)F.O=C(O)C(F)(F)F` (stereo partly drawn) [Example 53, N—((S)-5-cyano-1-((2,4-dimethoxyphenyl)sulfonyl)-3-(2-methoxypyridin-3-yl)-2-oxoindolin-3-yl)-4-(1-(2-methyloxetan-3-yl)piperidin-4-yl)piperazine-1-carboxamide, 2 trifluoroacetic acid], in test [1], the Ki lay within 1 to 10 nM. Also, in test [2], the “Ki(h-V1a)/Ki(h-V1b)” value is “++ (25-75)”.

Regarding “(S)—N-(5-cyano-1-((2,4-dimethoxyphenyl)sulfonyl)-3-(2-ethoxypyridin-3-yl)-2-oxoindolin-3-yl)-4-(4-(oxetan-3-yl)piperazin-1-yl)piperidine-1-carboxamide [Example 2]”, the Ki in test [1] was 1 to 10 nM. Also, in test [2], the “Ki(h-V1a)/Ki(h-V1b)” value is recorded as “++ (25-75)”.

As to `COc1ccc(S(=O)(=O)N2C(=O)[C@@](NC(=O)N3CCN(C4CCN(C5COC5)CC4)CC3)(c3cccnc3OC)c3cc(C#N)ccc32)c(OC)c1` [Example 21, N-[(3S)-5-cyano-1-(2,4-dimethoxyphenyl)sulfonyl-3-(2-methoxy-3-pyridyl)-2-oxo-indolin-3-yl]-4-[1-(oxetan-3-yl)-4-piperidyl]piperazine-1-carboxamide], the “latency to immobility in the forced swim test (antidepressant-like effect)” value with Sprague Dawley rats is given as “significant antidepressant-like effect”. The “Ki(h-V1a)/Ki(h-V1b)” value in test [2] was “+++ (>75)”. This molecule also had a Ki in test [3] of 10 to 100 nM. For the same molecule, the “punished responses in Vogel conflict (anxiolytic-like efficacy)” value with Wistar rats is on record as “significant effect”. Moreover, the “stress-induced ACTH release” value in test [4] is listed as “significantly blocked the stress response”.

Turning to `COc1ccc(S(=O)(=O)N2C(=O)[C@@](NC(=O)N3CCN(C4CCN(C5(C)COC5)CC4)CC3)(c3cccnc3OC)c3cc(C#N)ccc32)c(OC)c1.O=C(O)C(F)(F)F.O=C(O)C(F)(F)F` [Example 52, (S)—N-(5-cyano-1-((2,4-dimethoxyphenyl)sulfonyl)-3-(2-methoxypyridin-3-yl)-2-oxoindolin-3-yl)-4-(1-(3-methyloxetan-3-yl)piperidin-4-yl)piperazine-1-carboxamide, 2 trifluoroacetic acid], in test [1], the Ki lay in the range of 1 to 10 nM. Besides, in test [2], the “Ki(h-V1a)/Ki(h-V1b)” value is “+++ (>75)”.

Broadly, the Ki is a measure of affinity in units of concentration, obtained from inhibition or displacement.

Source of the values: patent US9657002B2, “Oxindole derivatives carrying an oxetane substituent and use thereof for treating vassopressin-related diseases” (AbbVie Deutschland GmbH & Co. KG, priority 2013, dated 2017).
